# Data as given in ChEMBL document CHEMBL1201862, “PubChem BioAssay data set” (2004).
# Calls of active or inactive are those of the source.
# How the values were obtained:
# [1] = human group III sPLA2 inhibitors, dose response, biochemical, QFRET, IC50 (AID 743457);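 also: green fluorescence rise as the enzyme cleaves BODIPY PC-A2 in liposomes; potency for inhibition of the enzyme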
# Cytochrome P450 2D6 = Cytochrome P450 2D6 (Homo sapiens, UniProt P10635);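 also: CYP2D6 member of a cytochrome P450 panel assay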
# Cytochrome P450 3A4 = Cytochrome P450 3A4 (Homo sapiens, UniProt P08684);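 also: CYP3A4 tested as one member of a cytochrome P450 panel screen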
# Cytochrome P450 2C9 = Cytochrome P450 2C9 (Homo sapiens, UniProt P11712)
# [2] = target: Photoreceptor-specific nuclear receptor (Homo sapiens, UniProt Q9Y5X4); format: functional, cell-based;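 also: CHO-S cells with Gal4-NCOR and VP16-NR2E3 two-hybrid luciferase reporter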
# [3] = target: T1, Methionyl-tRNA synthetase, putative (Trypanosoma brucei brucei, UniProt Q38C91); format: functional, Trypanosoma brucei brucei strain 927/4 GUTat10.1
# T1 sequence (Q38C91 whole entry): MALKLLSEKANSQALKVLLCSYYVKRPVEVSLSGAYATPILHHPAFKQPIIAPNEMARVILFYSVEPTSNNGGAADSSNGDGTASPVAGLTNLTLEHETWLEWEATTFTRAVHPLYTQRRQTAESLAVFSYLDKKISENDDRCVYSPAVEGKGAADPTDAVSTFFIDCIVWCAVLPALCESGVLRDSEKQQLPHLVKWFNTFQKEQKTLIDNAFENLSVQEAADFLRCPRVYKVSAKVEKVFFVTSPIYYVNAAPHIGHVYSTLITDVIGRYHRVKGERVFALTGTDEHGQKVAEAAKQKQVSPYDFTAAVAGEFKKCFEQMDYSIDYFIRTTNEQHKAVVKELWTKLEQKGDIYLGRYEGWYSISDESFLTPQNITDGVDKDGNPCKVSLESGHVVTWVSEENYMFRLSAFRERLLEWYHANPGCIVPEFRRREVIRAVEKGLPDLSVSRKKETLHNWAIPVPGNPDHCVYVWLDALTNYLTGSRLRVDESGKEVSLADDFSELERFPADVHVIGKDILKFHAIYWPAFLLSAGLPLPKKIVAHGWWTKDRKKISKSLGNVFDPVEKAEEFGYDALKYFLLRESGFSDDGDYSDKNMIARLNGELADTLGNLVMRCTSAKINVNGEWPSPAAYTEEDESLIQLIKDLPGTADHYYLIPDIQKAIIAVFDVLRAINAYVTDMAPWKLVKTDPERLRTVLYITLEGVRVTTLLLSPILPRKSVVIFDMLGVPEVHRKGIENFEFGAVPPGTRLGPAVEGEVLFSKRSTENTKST
# [4] = Counterscreen for activators of the function of SWI/SNF related, matrix associated, actin dependent regulator of chromatin, subfamily a, member 2 (SMARCA2, BRM): Luminescence-based cell-based high throughput dose response assay to identify non-selective compounds using the VP16 reporter assay.; format: functional
# [5] = target: T1, Methionyl-tRNA synthetase, putative; format: functional, Trypanosoma brucei brucei strain 927/4 GUTat10.1; remark: listed apart in the source
# [6] = target: SWI/SNF-related matrix-associated actin-dependent regulator of chromatin subfamily A member 2 (Homo sapiens, UniProt P51531); experiment: Luminescence-based cell-based high throughput dose response assay to identify activators of the function of SWI/SNF related, matrix associated, actin dependent regulator of chromatin, subfamily a, member 2 (SMARCA2, BRM).; format: functional
# [7] = Counterscreen for inhibitors of Trypanosoma brucei methionyl tRNA synthetase (MetRS): Luminescence-based cell-based high throughput dose response assay to identify compounds that are cytotoxic to Jurkat human T lymphocyte cells.; format: functional
# Major prion protein = Major prion protein (Homo sapiens, UniProt P04156); format: functional, cell-based
# [8] = cytotoxicity in HMLE control line with eGFP shRNA, dose response, counter-screen for HMLE_sh_ECad selective toxicity project, cell-based, HMLE_sh_eGFP, luminescence (AID 463074); format: functional, Homo sapiens;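 also: HMLE human mammary epithelial cells expressing control shRNA against eGFP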
# [9] = growth suppression of PTEN-null colon cells, dose response, cell-based, HCT116 PTEN knockout (AID 1047); format: functional;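 also: HCT116 colon tumor cells with PTEN knocked out; cells exposed to compound for 60 hours before readout; potency for loss of cell viability measured by luminescence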
# [10] = Luminescence Cell-Based Dose Retest to Confirm Inhibitors of Cancer Stem Cells. [Related pubchem assays (depositor defined):AID2717, AID2721]; format: functional; settings: Homo sapiens
# [11] = growth suppression of beta-catenin-knockout colon cells, dose response, cell-based, HCT116, human colon tumor (AID 1045); format: functional;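 also: HCT116 colon tumor cells with beta catenin knocked out; cells exposed to compound for 60 hours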
# Vero = experiment: cells; format: functional; settings: Chlorocebus sabaeus
# [12] = target: Matrix metalloproteinase-14 (Homo sapiens, UniProt P50281); experiment: Dose Response confirmation of uHTS hits for a small molecule inhibitors of MT1-MMP activation in a fluorescence assay set 1.; format: functional
# [13] = HEK293T cytotoxicity, dose response, cytotoxicity control for miR-122 modulator project, cell-based, activator set, cherry-pick (AID 720690); format: functional;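 also: HEK293T human cells scored for general mammalian cytotoxicity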
# HEK293 [14] = experiment: HEK cell cytotoxicity by LDH release, dose response, cytotoxicity control for IDE activator project, fluorescence, HEK cells (AID 588440); format: functional, cell-based; settings: Homo sapiens;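 also: cytotoxicity by LDH release measuring loss of membrane integrity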
# Melanocortin receptor 4 = Melanocortin receptor 4 (Homo sapiens, UniProt P32245); format: functional, cell-based;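 also: Cell-based assay with luminescence read-out, confirmatory dose-response testing for agonist activity of biased ligands at MC4R; human U2OS cells with tagged receptor and beta-arrestin; potency of agonists that increase receptor coupling to beta-arrestin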
# [15] = target: T2, DNA repair protein RAD52 homolog (Homo sapiens, UniProt P43351); format: functional, biochemical
# T2 sequence (P43351 whole entry): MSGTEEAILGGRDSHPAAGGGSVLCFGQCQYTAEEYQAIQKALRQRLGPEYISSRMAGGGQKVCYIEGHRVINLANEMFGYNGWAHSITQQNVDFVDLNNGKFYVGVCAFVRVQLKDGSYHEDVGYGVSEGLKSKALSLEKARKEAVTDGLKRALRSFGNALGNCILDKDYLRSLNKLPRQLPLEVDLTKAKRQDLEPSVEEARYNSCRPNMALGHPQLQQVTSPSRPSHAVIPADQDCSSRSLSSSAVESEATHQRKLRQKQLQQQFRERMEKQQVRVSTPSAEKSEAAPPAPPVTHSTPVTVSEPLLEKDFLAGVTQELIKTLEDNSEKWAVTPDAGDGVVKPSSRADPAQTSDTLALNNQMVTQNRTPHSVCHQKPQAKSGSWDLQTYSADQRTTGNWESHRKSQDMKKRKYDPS
# [16] = target: T3, Microphthalmia-associated transcription factor (Homo sapiens, UniProt O75030); experiment: TRPM1 promoter luciferase signal decrease, dose response, MITF inhibitor project, cell-based, SK-MEL-5, cherry-picked, set 3 (AID 493073); format: functional
# T3 sequence (O75030 whole entry): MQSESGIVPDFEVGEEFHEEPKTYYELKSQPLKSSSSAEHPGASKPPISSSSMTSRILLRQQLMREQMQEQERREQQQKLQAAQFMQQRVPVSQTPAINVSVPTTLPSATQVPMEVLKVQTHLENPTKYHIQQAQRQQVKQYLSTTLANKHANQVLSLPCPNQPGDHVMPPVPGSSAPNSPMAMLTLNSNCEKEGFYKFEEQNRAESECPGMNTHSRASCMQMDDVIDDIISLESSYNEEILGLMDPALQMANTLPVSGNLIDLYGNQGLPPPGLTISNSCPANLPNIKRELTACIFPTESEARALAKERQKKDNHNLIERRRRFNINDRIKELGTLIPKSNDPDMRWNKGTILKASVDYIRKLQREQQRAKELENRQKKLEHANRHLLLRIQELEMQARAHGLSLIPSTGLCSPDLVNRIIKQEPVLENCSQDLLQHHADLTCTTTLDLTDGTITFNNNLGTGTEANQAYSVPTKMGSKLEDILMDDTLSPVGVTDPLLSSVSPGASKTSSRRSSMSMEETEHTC
# [17] = HEp-2 cell cytotoxicity, dose response, cytotoxicity control for RSV inhibitor project, HTS (AID 2410); format: functional; settings: human respiratory syncytial virus
# Insulin-degrading enzyme [18] = target: T4, Insulin-degrading enzyme (Homo sapiens, UniProt P14735); experiment: activators of endogenous IDE in HEK cells, dose response, cell-based, fluorescence polarization (AID 588439); format: functional
# T4 sequence (P14735 whole entry): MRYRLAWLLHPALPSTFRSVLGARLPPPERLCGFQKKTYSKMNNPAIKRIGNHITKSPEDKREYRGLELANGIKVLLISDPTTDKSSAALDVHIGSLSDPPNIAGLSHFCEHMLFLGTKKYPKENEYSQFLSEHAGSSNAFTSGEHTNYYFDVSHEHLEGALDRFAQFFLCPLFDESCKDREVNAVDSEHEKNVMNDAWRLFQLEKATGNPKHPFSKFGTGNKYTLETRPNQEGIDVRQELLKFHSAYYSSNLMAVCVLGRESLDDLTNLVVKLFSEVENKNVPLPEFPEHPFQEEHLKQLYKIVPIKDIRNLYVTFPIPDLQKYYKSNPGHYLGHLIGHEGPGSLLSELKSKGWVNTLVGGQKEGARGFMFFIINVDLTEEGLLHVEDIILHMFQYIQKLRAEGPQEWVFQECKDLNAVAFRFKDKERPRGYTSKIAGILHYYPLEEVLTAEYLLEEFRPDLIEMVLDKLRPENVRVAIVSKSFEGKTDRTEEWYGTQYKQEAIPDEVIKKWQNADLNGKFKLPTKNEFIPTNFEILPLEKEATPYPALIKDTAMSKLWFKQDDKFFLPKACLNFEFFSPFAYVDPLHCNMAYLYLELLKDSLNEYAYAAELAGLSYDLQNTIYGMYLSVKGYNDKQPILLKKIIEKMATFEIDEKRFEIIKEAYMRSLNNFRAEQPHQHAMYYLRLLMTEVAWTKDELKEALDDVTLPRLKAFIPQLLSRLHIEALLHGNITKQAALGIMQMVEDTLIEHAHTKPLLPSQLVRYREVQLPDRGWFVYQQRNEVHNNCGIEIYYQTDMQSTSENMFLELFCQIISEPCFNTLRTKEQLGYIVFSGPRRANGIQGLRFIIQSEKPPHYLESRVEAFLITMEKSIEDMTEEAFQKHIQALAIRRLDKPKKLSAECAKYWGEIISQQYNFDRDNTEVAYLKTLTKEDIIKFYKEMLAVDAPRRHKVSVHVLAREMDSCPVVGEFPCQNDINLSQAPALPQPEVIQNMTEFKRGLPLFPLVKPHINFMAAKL
# [19] = HEK293T cytotoxicity, dose response, cytotoxicity control for miR-122 modulator project, cell-based, inhibitor set, cherry-pick, set 2 (AID 720697); format: functional
# Insulin-degrading enzyme [20] = target: T4, Insulin-degrading enzyme; experiment: activators of recombinant IDE enzyme, dose response, counter-screen for IDE activator project, biochemical, fluorescence polarization (AID 588681)
# [21] = miR-122 activators in hepatoma reporter cells, dose response, cell-based, Huh7 psiCHECK-miR122, Renilla luciferase, cherry-picked (AID 651956); format: functional;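 also: huh7 hepatoma cells stably carrying a psiCHECK-2 miR-122 sensor plasmid; renilla luciferase signal reporting endogenous miR-122 activity after 48 h compound exposure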
# A-375 = experiment: A375 melanoma cell viability reduction, dose response, counter-screen for MITF modulator project, cherry-pick samples, set 2 (AID 540335); format: functional, cell-based; settings: Homo sapiens
# HEK293 [22] = experiment: optical interference in Abeta FP readout, dose response, artefact control for IDE activator project, biochemical, fluorescence polarization (AID 588442); format: functional, cell-based; settings: Homo sapiens
smiles,measurement,setting,value
S=C(Nc1ccccc1)Nc1nccs1,IC50,[1],> 122 µM (inactive)
same,AC50,Cytochrome P450 2D6,31.6 µM (inconclusive)
same,AC50,Cytochrome P450 3A4,15.8 µM (inconclusive)
same,AC50,Cytochrome P450 2C9,20 µM (inconclusive)
Cc1cccc(OCCCC(=O)Nc2nc3ccccc3[nH]2)c1,IC50,[2],2.88 µM (active)
same,IC50,[3],4.34 µM (active)
same,EC50,[4],> 91.1 µM (inactive)
same,IC50,[5],39.5 µM (inactive)
same,EC50,[6],> 91.1 µM (inactive)
same,IC50,[7],29.6 µM (inactive)
CCOC(=O)CSc1nc(Cc2ccccc2)nc2ccccc12,IC50,cells,> 138 µM (inactive)
same,IC50,Major prion protein,4.31 µM (active)
O=C(NNc1c2ccccc2nc2ccccc12)c1cc2ccccc2cc1O,AC50,[8],28.2 µM (active)
same,EC50,[9],6.4 µM (active)
same,AC50,[10],27 µM (active)
same,EC50,[11],7.12 µM (active)
same,CC50,Vero,2.61 µM (active)
same,IC50,[12],24.4 µM (inactive)
COc1cccc2sc(N(CCCN(C)C)C(=O)C(c3ccccc3)c3ccccc3)nc12,AC50,[13],16.2 µM (active)
same,IC50,HEK293 [14],10.2 µM (inactive)
same,EC50,Melanocortin receptor 4,> 89.2 µM (inactive)
same,AC50,[15],13.3 µM (active)
same,AC50,[16],15.1 µM (active)
same,CC50,[17],13.6 µM (active)
same,EC50,Insulin-degrading enzyme [18],15.1 µM (inactive)
same,AC50,[19],1.77 µM (active)
same,EC50,Insulin-degrading enzyme [20],> 54.7 µM (inactive)
same,AC50,[21],8.07 µM (active)
same,AC50,A-375,18.3 µM (active)
same,EC50,HEK293 [22],> 54.7 µM (inactive)
